In paper PMC11765572 (International Journal of Molecular Sciences, 2025):

Test system: SARS-CoV-2 (BetaCov/Belgium/GHB-03021/2020 B.1 lineage A)

Row | SMILES | SI (Selection Index) = CC50/EC50
1 | CNC(=O)c1cc(Br)cc([N+](=O)[O-])c1N[C@@H]1CCCC[C@@H]1NC(=O)c1cccnc1 [Compound A5, N-((1S,2R)-2-((4-bromo-2-(methylcarbamoyl)-6-nitrophenyl)amino)cyclohexyl)nicotinamide] | >49.7
2 | CNC(=O)c1cc(Br)cc([N+](=O)[O-])c1N[C@@H]1CCCC[C@@H]1NC(=O)c1cncc(O)c1 [Compound A6, N-((1S,2R)-2-((4-bromo-2-(methylcarbamoyl)-6-nitrophenyl)amino)cyclohexyl)-5-hydroxynicotinamide] | >16.5
